# According to ChEMBL document CHEMBL1201862, “PubChem BioAssay data set” (2004):
#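 Following 48 hours of exposure in 96-well plates, responses at five concentrations were used to interpolate endpoints linearly. GI50 is the concentration that inhibits growth by half.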 Activity calls are given as the source filed them. Cut-off read from the data, not from the text of the source: active = GI50 up to about 1.1 µM and inactive = higher.
# Legend:
# Test in all cases: DTP human tumour cell line panel, 48 h
# A498 = tested on: A498
# CCRF-CEM = tested on: CCRF-CEM
# HCT-15 = tested on: HCT-15
# HL-60 = tested on: HL-60
# MOLT-4 = tested on: MOLT-4
# Malme-3M = tested on: Malme-3M
# NCI-H226 = tested on: NCI-H226
# NCI-H23 = tested on: NCI-H23
# OVCAR-8 = tested on: OVCAR-8
# RPMI-8226 = tested on: RPMI-8226
# SF-268 = tested on: SF-268
# SK-MEL-2 = tested on: SK-MEL-2
# SK-MEL-5 = tested on: SK-MEL-5
# SNB-19 = tested on: SNB-19
# SR = tested on: SR
# UACC-257 = tested on: UACC-257
# MDA-MB-231 = tested on: MDA-MB-231
# MDA-MB-435 = tested on: MDA-MB-435
# NCI/ADR-RES = tested on: NCI/ADR-RES
Structure (SMILES),GI50 (A498),GI50 (CCRF-CEM),GI50 (HCT-15) [µM],GI50 (HL-60),GI50 (MOLT-4),GI50 (Malme-3M),GI50 (NCI-H226),GI50 (NCI-H23),GI50 (OVCAR-8),GI50 (RPMI-8226),GI50 (SF-268),GI50 (SK-MEL-2),GI50 (SK-MEL-5),GI50 (SNB-19),GI50 (SR),GI50 (UACC-257),GI50 (MDA-MB-231),GI50 (MDA-MB-435),GI50 (NCI/ADR-RES)
N#Cc1ccc(/C=C(/C(=O)c2ccccc2)c2ccccc2)cc1,17.9 µM (inactive),3.19 µM (inactive),12.2,2.67 µM (inactive),2.99 µM (inactive),12.6 µM (inactive),16.7 µM (inactive),15.7 µM (inactive),6.41 µM (inactive),2.59 µM (inactive),15.2 µM (inactive),15 µM (inactive),12.8 µM (inactive),19.4 µM (inactive),2.62 µM (inactive),12.4 µM (inactive),–,–,–
Cc1c(C(=O)C/C(=N/NC(=O)CC#N)C(N)=O)[n+]([O-])c2ccccc2[n+]1[O-],> 100 µM (inactive),35.1 µM (inactive),25.9,17.7 µM (inactive),35.6 µM (inactive),32.3 µM (inactive),> 100 µM (inactive),83.6 µM (inactive),34.2 µM (inactive),33.9 µM (inactive),34.3 µM (inactive),> 100 µM (inactive),40.6 µM (inactive),> 100 µM (inactive),46.1 µM (inactive),35.9 µM (inactive),–,–,–
CCOC(=O)/C=C/C1(CCOC(C)=O)CCCCC1,–,> 10 µM (inactive),> 10,> 10 µM (inactive),> 10 µM (inactive),–,> 10 µM (inactive),> 10 µM (inactive),> 10 µM (inactive),> 10 µM (inactive),> 10 µM (inactive),> 10 µM (inactive),> 10 µM (inactive),> 10 µM (inactive),> 10 µM (inactive),> 10 µM (inactive),> 10 µM (inactive),> 10 µM (inactive),> 10 µM (inactive)
CC(=O)Nc1cccc(/N=N/N(C)C)c1,> 100 µM (inactive),> 100 µM (inactive),> 100,> 100 µM (inactive),> 100 µM (inactive),> 100 µM (inactive),> 100 µM (inactive),> 100 µM (inactive),> 100 µM (inactive),> 100 µM (inactive),> 100 µM (inactive),> 100 µM (inactive),> 100 µM (inactive),> 100 µM (inactive),–,> 100 µM (inactive),–,–,> 100 µM (inactive)
C=CC1(C)OC2(CCN(C(=O)OCC)CC2)OC1C (centres undefined),> 100 µM (inactive),> 100 µM (inactive),> 100,> 100 µM (inactive),34.8 µM (inactive),> 100 µM (inactive),> 100 µM (inactive),> 100 µM (inactive),> 100 µM (inactive),> 100 µM (inactive),> 100 µM (inactive),> 100 µM (inactive),> 100 µM (inactive),> 100 µM (inactive),> 100 µM (inactive),> 100 µM (inactive),> 100 µM (inactive),> 100 µM (inactive),> 100 µM (inactive)
COc1ccc(OC(C)C(=O)O)c2c(=O)ccccc12 (centres undefined),> 100 µM (inactive),> 100 µM (inactive),> 100,> 100 µM (inactive),> 100 µM (inactive),> 100 µM (inactive),> 100 µM (inactive),> 100 µM (inactive),> 100 µM (inactive),> 100 µM (inactive),> 100 µM (inactive),> 100 µM (inactive),> 100 µM (inactive),> 100 µM (inactive),> 100 µM (inactive),> 100 µM (inactive),–,–,–
COc1cc([C@@H]2c3cc4c(cc3[C@@H](/N=C/c3ccc(C(=O)O[C@@H](C(=O)O[C@H]5C[C@@]6(O)[C@@H](OC(=O)c7ccccc7)[C@@H]7[C@]8(OC(C)=O)CO[C@@H]8C[C@H](O)[C@@]7(C)C(=O)[C@H](OC(C)=O)C(=C5C)C6(C)C)[C@@H](NC(=O)c5ccccc5)c5ccccc5)cc3)[C@H]3COC(=O)[C@H]23)OCO4)cc(OC)c1O,0.133 µM (active),0.0118 µM (active),13.3,0.0149 µM (active),0.018 µM (active),–,0.075 µM (active),0.869 µM (active),0.356 µM (active),< 0.005 µM (active),0.0703 µM (active),0.0335 µM (active),0.0154 µM (active),1.22 µM (inactive),< 0.005 µM (active),0.109 µM (active),0.116 µM (active),< 0.005 µM (active),> 46 µM (inactive)
CCCC(O)C(NC(=O)CCl)C(=O)O (centres undefined),> 100 µM (inactive),> 100 µM (inactive),> 100,> 100 µM (inactive),> 100 µM (inactive),> 100 µM (inactive),> 100 µM (inactive),> 100 µM (inactive),> 100 µM (inactive),> 100 µM (inactive),> 100 µM (inactive),> 100 µM (inactive),> 100 µM (inactive),> 100 µM (inactive),–,> 100 µM (inactive),–,–,> 100 µM (inactive)
CSCCC(NC(=O)C(Cc1ccccc1)NC(=O)CNC(=O)CNC(=O)C(N)Cc1ccc(O)cc1)C(=O)O (centres undefined),> 100 µM (inactive),> 100 µM (inactive),> 100,> 100 µM (inactive),> 100 µM (inactive),> 100 µM (inactive),–,> 100 µM (inactive),> 100 µM (inactive),–,> 100 µM (inactive),> 100 µM (inactive),> 100 µM (inactive),> 100 µM (inactive),–,> 100 µM (inactive),–,–,> 100 µM (inactive)
O=C(OCc1c(-c2ccccc2)nn(-c2ccccc2)c1COC(=O)Oc1ccccc1)Oc1ccccc1,> 100 µM (inactive),> 100 µM (inactive),> 100,> 100 µM (inactive),> 100 µM (inactive),> 100 µM (inactive),> 100 µM (inactive),> 100 µM (inactive),> 100 µM (inactive),> 100 µM (inactive),> 100 µM (inactive),–,31.8 µM (inactive),> 100 µM (inactive),> 100 µM (inactive),> 100 µM (inactive),> 100 µM (inactive),> 100 µM (inactive),> 100 µM (inactive)
CC1(C)C[C@H]2C3=CC[C@@H]4[C@@]5(C)CC[C@H](O)C(C)(C)[C@@H]5CC[C@@]4(C)[C@]3(C)C[C@@H](O)[C@@]23C[C@@H]1OC3=O,> 100 µM (inactive),> 100 µM (inactive),> 100,37.1 µM (inactive),49.2 µM (inactive),> 100 µM (inactive),–,> 100 µM (inactive),> 100 µM (inactive),65.5 µM (inactive),> 100 µM (inactive),> 100 µM (inactive),55.2 µM (inactive),> 100 µM (inactive),> 100 µM (inactive),> 100 µM (inactive),> 100 µM (inactive),> 100 µM (inactive),72.4 µM (inactive)
